Literature values as cited in patent US20070027116A1, “Therapeutic phosphonate derivatives” (priority 2003, published 2007).

Details: after oral or intravenous administration; background statement

COc1c(C)c2c(c(O)c1C/C=C(\C)CCC(=O)OCCN1CCOCC1)C(=O)OC2 [Mycophenolate mofetil]
drug cleared by glucuronidation and excreted in the urine: over 90%
